Values quoted from earlier work as cited in PubChem BioAssay AID1259409 (Chemical Carcinogenesis Research Information System (CCRIS), 2018).

Test system: rodent chemically induced tumor inhibition, incidence and multiplicity
Assay: CCRIS tumor inhibitor studies
Conditions: Species: MOUSE

SMILES | tumour outcome (control, treated, inhibition, significance) (Carcinogen: BENZO[A]PYRENE, 50-32-8, Dose [Inhibitor]: 4 UG IN 0.1 ML ACETONE 3/WK ADMINISTERED SIMULTANEOUSLY WITH CARCINOGEN FOR DURATION OF STUDY (STUDY DURATION: 368 D), Route [Inhibitor]: DERMAL, Strain/Sex: ICR/FEMALE, Target Tissue: Type of Lesion: SKIN: PAPILLOMA, Dose [Carcinogen]: 5 UG IN 0.1 ML ACETONE 3/WK FOR DURATION OF STUDY, Promoter: NONE USED) | tumour outcome (control, treated, inhibition, significance) (Carcinogen: BENZO[A]PYRENE, 50-32-8, Dose [Inhibitor]: 4 UG IN 0.1 ML ACETONE 3/WK ADMINISTERED SIMULTANEOUSLY WITH CARCINOGEN FOR DURATION OF STUDY (STUDY DURATION: 368 D), Route [Inhibitor]: DERMAL, Strain/Sex: ICR/FEMALE, Target Tissue: Type of Lesion: SKIN: SQUAMOUS CARCINOMA, Dose [Carcinogen]: 5 UG IN 0.1 ML ACETONE 3/WK FOR DURATION OF STUDY, Promoter: NONE USED) | tumour outcome (control, treated, inhibition, significance) (Carcinogen: BENZO[A]PYRENE, 50-32-8, Dose [Inhibitor]: 12 UG IN 0.1 ML ACETONE 3/WK ADMINISTERED SIMULTANEOUSLY WITH CARCINOGEN FOR DURATION OF STUDY (STUDY DURATION: 368 D), Route [Inhibitor]: DERMAL, Strain/Sex: ICR/FEMALE, Target Tissue: Type of Lesion: SKIN: PAPILLOMA, Dose [Carcinogen]: 5 UG IN 0.1 ML ACETONE 3/WK FOR DURATION OF STUDY, Promoter: NONE USED) | tumour outcome (control, treated, inhibition, significance) (Carcinogen: BENZO[A]PYRENE, 50-32-8, Dose [Inhibitor]: 12 UG IN 0.1 ML ACETONE 3/WK ADMINISTERED SIMULTANEOUSLY WITH CARCINOGEN FOR DURATION OF STUDY (STUDY DURATION: 368 D), Route [Inhibitor]: DERMAL, Strain/Sex: ICR/FEMALE, Target Tissue: Type of Lesion: SKIN: SQUAMOUS CARCINOMA, Dose [Carcinogen]: 5 UG IN 0.1 ML ACETONE 3/WK FOR DURATION OF STUDY, Promoter: NONE USED) | tumour outcome (control, treated, inhibition, significance) (Carcinogen: BENZO[A]PYRENE, 50-32-8, Dose [Inhibitor]: 40 UG IN 0.1 ML ACETONE 3/WK ADMINISTERED SIMULTANEOUSLY WITH CARCINOGEN FOR DURATION OF STUDY (STUDY DURATION: 440 D), Route [Inhibitor]: DERMAL, Strain/Sex: ICR/FEMALE, Target Tissue: Type of Lesion: SKIN: PAPILLOMA, Dose [Carcinogen]: 5 UG IN 0.1 ML ACETONE 3/WK FOR DURATION OF STUDY, Promoter: NONE USED) | tumour outcome (control, treated, inhibition, significance) (Carcinogen: BENZO[A]PYRENE, 50-32-8, Dose [Inhibitor]: 40 UG IN 0.1 ML ACETONE 3/WK ADMINISTERED SIMULTANEOUSLY WITH CARCINOGEN FOR DURATION OF STUDY (STUDY DURATION: 440 D), Route [Inhibitor]: DERMAL, Strain/Sex: ICR/FEMALE, Target Tissue: Type of Lesion: SKIN: SQUAMOUS CARCINOMA, Dose [Carcinogen]: 5 UG IN 0.1 ML ACETONE 3/WK FOR DURATION OF STUDY, Promoter: NONE USED) | tumour outcome (control, treated, inhibition, significance) (Carcinogen: 7,12-DIMETHYLBENZ[A]ANTHRACENE, 57-97-6, Dose [Inhibitor]: 0, 0.2 ML OF A 1% SOLUTION 1/D FOR 2 WK APPLIED 5 MIN POST EACH CARCINOGEN DOSE THEN 1/D FOR 4 WK DURING PROMOTION STAGE, Route [Inhibitor]: DERMAL, Strain/Sex: SWISS/MALE, Target Tissue: Type of Lesion: SKIN: PAPILLOMA, Dose [Carcinogen]: 0.2 ML OF A 0.24% SOLUTION IN DMSO 1/D FOR 2 WK, Promoter: CROTON OIL, 8001-28-3) | tumour outcome (control, treated, inhibition, significance) (Carcinogen: 7,12-DIMETHYLBENZ[A]ANTHRACENE, 57-97-6, Dose [Inhibitor]: 0, 0.2 ML OF A 1% SOLUTION 1/D FOR 2 WK APPLIED 5 MIN PRIOR TO EACH CARCINOGEN DOSE (STUDY DURATION: 20 WK), Route [Inhibitor]: DERMAL, Strain/Sex: SWISS/MALE, Target Tissue: Type of Lesion: SKIN: PAPILLOMA, Dose [Carcinogen]: 0.2 ML OF A 0.24% SOLUTION IN DMSO 1/D FOR 2 WK, Promoter: CROTON OIL, 8001-28-3) | tumour outcome (control, treated, inhibition, significance) (Carcinogen: AZOXYMETHANE, 25843-45-2, Dose [Inhibitor]: 0, 1% IN DIET FOR DURATION OF STUDY (STUDY DURATION: 48 WK), Route [Inhibitor]: ORAL, Strain/Sex: CF-1/FEMALE, Target Tissue: Type of Lesion: COLON: TUMOR, Dose [Carcinogen]: 10 MG/KG BW 3 TIMES, Promoter: NONE USED) | tumour outcome (control, treated, inhibition, significance) (Carcinogen: AZOXYMETHANE, 25843-45-2, Dose [Inhibitor]: 0, 4% IN DIET FOR DURATION OF STUDY (STUDY DURATION: 48 WK), Route [Inhibitor]: ORAL, Strain/Sex: CF-1/FEMALE, Target Tissue: Type of Lesion: COLON: TUMOR, Dose [Carcinogen]: 10 MG/KG BW 3 TIMES, Promoter: NONE USED)
c1cc2ccc3cccc4ccc(c1)c2c34 | 14/50 (28%), 12/50 (24%), 14%, not calculated | 10/50 (20%), 6/50 (12%), 40%, not calculated | 14/50 (28%), 26/50 (52%), -86%, not calculated | 10/50 (20%), 20/50 (40%), -100%, not calculated | 16/50 (32%), 35/50 (70%), -119%, not calculated | 12/50 (24%), 26/50 (52%), -117%, not calculated |  |  |  | 
C[C@@H]1O[C@@H](OC[C@H]2O[C@@H](Oc3c(-c4ccc(O)c(O)c4)oc4cc(O)cc(O)c4c3=O)[C@H](O)[C@@H](O)[C@@H]2O)[C@H](O)[C@H](O)[C@H]1O |  |  |  |  |  |  | 23/23 (100%), 14/24 (58%), 42%, not calculated | 23/23 (100%), 21/23 (91%), 9%, not calculated | 8/32 (25%), 9/35 (26%), -4%, not significant | 8/32 (25%), 3/31 (10%), 60%, not significant
